Measurements reported in US20130177991A1, “A[…] EMISSION LUMINOGEN-BASED URINARY PROTEIN DETECTION DEVICE FOR […] HEALTH” (NANO AND ADVANCED MATERIALS INSTITUTE LIMITED, priority 2012, published 2013).

Key:
[1] = molecular target: T1, HSA (Homo sapiens, UniProt P02768); assay: Fluorescence turn-on assay of HSA in PBS buffer; type: binding
T1 construct: purchased Sigma-Aldrich
Procedure: FIG. 2: (A) Fluorescent (FL) spectra of compound 1, SATPE in phosphate buffered saline (PBS) buffer containing different concentrations of HSA; (B) Change in the FL intensity at 475 nm with HSA concentration; Io=FL intensity in the absence of HSA. Inset: linear region of the binding isotherm of SATPE to HSA. [SATPE]=5 μM; λex=350 nm.
(§1) In another embodiment, Compound 1 is AIE-active as it emits faintly in PBS buffer but gives strong light upon aggregate formation. Its solution in PBS buffer is weakly luminescent at 390 nm in the absence of HSA (FIG. 2). […] The higher the HSA content, the stronger is the light emission. The detection limit can be squeezed to as low as 1 nM. In order to examine the feasibility of protein assay in body fluids, artificial urine is utilized as medium in the protein assay.

[2] = molecular target: T1, HSA; assay: Selectivity of fluorescence response to HSA against other proteins and DNAs; type: binding; conditions: FIG. 3B, [SATPE]=5 μM, [protein]=100 μg/mL
Procedure: FIG. 3: (A) Binding isotherm of HSA to SATPE in artificial urine and PBS buffer; (B) Dependence of the FL intensity of SATPE at 475 nm on different proteins in artificial urine and PBS buffer. [SATPE]=5 μM; [protein]=100 μg/mL; λex=350 nm.
as §1

T1 sequence (P02768 25-609): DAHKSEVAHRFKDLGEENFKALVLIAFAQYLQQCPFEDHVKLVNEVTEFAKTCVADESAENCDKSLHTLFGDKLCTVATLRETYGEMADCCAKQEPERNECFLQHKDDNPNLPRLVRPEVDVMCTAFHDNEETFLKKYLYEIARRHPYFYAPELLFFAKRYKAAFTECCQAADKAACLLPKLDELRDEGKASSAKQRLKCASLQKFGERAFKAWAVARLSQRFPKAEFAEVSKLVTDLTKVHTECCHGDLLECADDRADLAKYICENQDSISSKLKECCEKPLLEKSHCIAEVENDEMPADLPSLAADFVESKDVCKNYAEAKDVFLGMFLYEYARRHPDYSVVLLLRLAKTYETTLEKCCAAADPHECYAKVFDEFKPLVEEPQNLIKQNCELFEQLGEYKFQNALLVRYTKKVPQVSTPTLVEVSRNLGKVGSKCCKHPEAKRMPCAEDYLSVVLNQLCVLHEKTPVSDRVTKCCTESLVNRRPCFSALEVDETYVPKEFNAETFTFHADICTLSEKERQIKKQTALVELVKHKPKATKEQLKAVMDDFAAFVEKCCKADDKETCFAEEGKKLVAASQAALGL

O=S(=O)([O-])CCCOc1ccc(C(=C(c2ccccc2)c2ccc(OCCCS(=O)(=O)[O-])cc2)c2ccccc2)cc1.[Na+].[Na+] [Compound 1]
detection limit for HSA ([1]; emission at 475 nm): 1 nM | light emission upon addition of HSA ([1]; weakly luminescent at 390 nm in the absence of HSA): emit intensely at 475 nm | response to other human proteins and DNAs [2]: no significant response | selectivity to HSA ([2]; artificial urine and PBS buffer): excellent selectivity to HSA
